Results reported in ChEMBL document CHEMBL1151015, “Novel frameworks for trifluoromethyl ketone and phosphonate tsa inhibitors of type II PLA2” (Bioorg Med Chem Lett, 1997).
Blank lines part the entries; values can stand above or below the compound they belong to.

Assays:
[1] = Dissociation constant of compound.; assay type: physicochemical
Homo sapiens [2] = species: Homo sapiens; test: Compound was measured for the inhibitory activity against LTB4 formation in human whole blood at 30 uM concentration; assay type: functional; set-up: scale not given: the % may be the effect or the level left
Homo sapiens [3] = species: Homo sapiens; test: Compound was measured for the inhibitory activity against LTC4 formation in human monocyte at 30 uM concentration; assay type: functional; set-up: scale not given: the % may be the effect or the level left
Homo sapiens [4] = species: Homo sapiens; test: Compound was measured for the inhibitory activity against LTC4 formation in human monocyte; not determined; not cell permeable; assay type: functional
[5] = pH dependence of compound; weak; assay type: ADME
[6] = target: T1, Cytosolic phospholipase A2 (Homo sapiens) (UniProt P47712); test: Compound was measured for the inhibitory activity against Cytosolic phospholipase A 2 (c-PLA2) at 30 uM concentration; set-up: scale not given: the % may be the effect or the level left
T1 sequence (whole entry): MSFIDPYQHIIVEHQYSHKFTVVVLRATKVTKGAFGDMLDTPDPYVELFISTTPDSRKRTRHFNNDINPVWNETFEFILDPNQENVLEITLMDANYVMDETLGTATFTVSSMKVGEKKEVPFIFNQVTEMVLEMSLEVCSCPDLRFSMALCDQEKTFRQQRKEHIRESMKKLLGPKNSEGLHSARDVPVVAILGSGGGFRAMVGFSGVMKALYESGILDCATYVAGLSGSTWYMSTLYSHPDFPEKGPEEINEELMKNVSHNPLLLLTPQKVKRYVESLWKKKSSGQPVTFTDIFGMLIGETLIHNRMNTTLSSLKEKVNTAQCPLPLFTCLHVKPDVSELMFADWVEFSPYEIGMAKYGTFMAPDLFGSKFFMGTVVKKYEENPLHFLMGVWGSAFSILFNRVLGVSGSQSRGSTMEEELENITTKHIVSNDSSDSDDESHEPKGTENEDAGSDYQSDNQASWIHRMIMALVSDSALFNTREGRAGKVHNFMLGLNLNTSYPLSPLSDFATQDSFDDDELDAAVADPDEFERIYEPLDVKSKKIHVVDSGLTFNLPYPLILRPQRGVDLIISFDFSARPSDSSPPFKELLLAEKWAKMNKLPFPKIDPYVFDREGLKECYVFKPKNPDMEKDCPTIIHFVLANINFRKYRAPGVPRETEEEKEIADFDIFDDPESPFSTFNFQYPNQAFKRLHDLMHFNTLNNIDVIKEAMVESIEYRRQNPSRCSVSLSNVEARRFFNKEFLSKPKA

Homo sapiens [7] = species: Homo sapiens; test: Compound was measured for the inhibitory activity against LTC4 formation in human monocyte; not cell permeable; assay type: functional
[8] = target: T1, Cytosolic phospholipase A2 (Homo sapiens); test: Compound was measured for the inhibitory activity against Cytosolic phospholipase A2 (c-PLA2) at 100 uM concentration; set-up: scale not given: the % may be the effect or the level left

pKa [1]: 7.1
SMILES: CCCCCCCCCCOP(=O)(O)c1cc(OCc2ccccc2)ccc1/C=C/C(=O)O
Activity (Homo sapiens [2]): -90%
Activity (Homo sapiens [3]): -44%

pH dependence [5]: weak
SMILES: CCCCCCCCCCCCCCCCCCOP(=O)(O)c1cccc2ccc(C(=O)O)cc12
Activity (Homo sapiens [4]): not cell permeable

Activity [6]: -40%
pKa [1]: 7.1
SMILES: CCCCCCCOc1ccc(C(=O)O)cc1CC(=O)C(F)(F)F
Activity (Homo sapiens [7]): not cell permeable

Activity [8]: -36%
SMILES: O=C(O)c1ccc2cccc(C(=O)C(F)(F)F)c2c1
Activity (Homo sapiens [3]): -76%
